# Data taken from PubChem BioAssay AID330 (DTP/NCI, 2004).
# Toxic doses and inconclusive results are not listed.
# System: P388 leukemia ip, CD2F1 mice, survival T/C
# Test: NCI In Vivo Anticancer Drug Screen. Data for tumor model P388 Leukemia (intraperitoneal) in CD2F1 (CDF1) mice
# Details: endpoint: median survival time, higher = longer survival
# Outline: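 Mice carrying the transplanted tumor received test compound or vehicle. Survival was recorded in each group, and the value is the treated-group measurement divided by that of the vehicle-treated control group.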
# [1] = dose: 6.25 mg/kg/injection, schedule: Q01DX009 (ip), vehicle: saline with Tween-80
# [2] = dose: 12.5 mg/kg/injection, schedule: Q01DX009 (ip), vehicle: saline with Tween-80
# [3] = dose: 50.0 mg/kg/injection, schedule: Q01DX005 (ip), vehicle: saline with Tween-80
# [4] = dose: 100.0 mg/kg/injection, schedule: Q01DX005 (ip), vehicle: saline with Tween-80
# [5] = dose: 200.0 mg/kg/injection, schedule: Q01DX005 (ip), vehicle: saline with Tween-80
# [6] = dose: 100.0 mg/kg/injection, schedule: Q04DX002 (ip), vehicle: saline with Tween-80
# [7] = dose: 200.0 mg/kg/injection, schedule: Q04DX002 (ip), vehicle: saline with Tween-80
# [8] = dose: 400.0 mg/kg/injection, schedule: Q04DX002 (ip), vehicle: saline with Tween-80
structure (smiles),measurement,setting,value
CCCCC1(CCCCCCCCC(O)CC(=O)OCC)OCCO1 (stereo not drawn),T/C,"dose: 100.0 mg/kg/injection, schedule: Q04DX002 (ip), vehicle: Klucel (hydroxypropylcellulose) (HPC)",104 % of control
same,T/C,"dose: 200.0 mg/kg/injection, schedule: Q04DX002 (ip), vehicle: Klucel (hydroxypropylcellulose) (HPC)",100 % of control
same,T/C,"dose: 400.0 mg/kg/injection, schedule: Q04DX002 (ip), vehicle: Klucel (hydroxypropylcellulose) (HPC)",96 % of control
CCOC(=O)Nc1cc(N(C)CC(O)c2ccccc2)c(N)c(N)n1 (stereo not drawn),T/C,"dose: 50.0 mg/kg/injection, schedule: Q01DX001 (ip), vehicle: saline with Tween-80",104 % of control
same,T/C,"dose: 100.0 mg/kg/injection, schedule: Q01DX001 (ip), vehicle: saline with Tween-80",94 % of control
same,T/C,"dose: 200.0 mg/kg/injection, schedule: Q01DX001 (ip), vehicle: saline with Tween-80",94 % of control
O=C([Se][Se]C(=O)c1ccccc1)c1ccccc1,T/C,[1],101 % of control
same,T/C,[2],107 % of control
same,T/C,"dose: 25.0 mg/kg/injection, schedule: Q01DX009 (ip), vehicle: saline with Tween-80",107 % of control
O=c1cc(Cc2ccccc2)[nH]c(=S)[nH]1,T/C,"dose: 100.0 mg/kg/injection, schedule: Q04DX003 (ip), vehicle: saline with Tween-80",109 % of control
same,T/C,"dose: 200.0 mg/kg/injection, schedule: Q04DX003 (ip), vehicle: saline with Tween-80",104 % of control
same,T/C,"dose: 400.0 mg/kg/injection, schedule: Q04DX003 (ip), vehicle: saline with Tween-80",100 % of control
COc1cc2ccnc(C3(OC(=O)c4ccccc4)CCN(CCc4ccccc4)CC3)c2cc1OC,T/C,"dose: 12.5 mg/kg/injection, schedule: Q01DX009 (ip), vehicle: saline",96 % of control
same,T/C,"dose: 25.0 mg/kg/injection, schedule: Q01DX009 (ip), vehicle: saline",92 % of control
same,T/C,"dose: 50.0 mg/kg/injection, schedule: Q01DX009 (ip), vehicle: saline with Tween-80",96 % of control
CN(O)C(=O)CNC(=O)OC(C)(C)C,T/C,[3],100 % of control
same,T/C,[4],98 % of control
same,T/C,[5],100 % of control
same,T/C,"dose: 400.0 mg/kg/injection, schedule: Q01DX005 (ip), vehicle: saline with Tween-80",105 % of control
COc1cccc2c1C(=O)c1c(O)c3c(c(O)c1C2=O)C[C@@](O)(C(=O)COC(=O)c1ccccc1)C[C@@H]3OC1CC(N)C(O)C(C)O1 (stereo partly drawn),T/C,"dose: 0.5 mg/kg/injection, schedule: Q01DX009 (ip), vehicle: saline sonified",168 % of control
same,T/C,"dose: 1.0 mg/kg/injection, schedule: Q01DX009 (ip), vehicle: saline sonified",186 % of control
same,T/C,"dose: 2.0 mg/kg/injection, schedule: Q01DX009 (ip), vehicle: saline sonified",190 % of control
COc1ccc(/C=N\NC(=O)CNC(=O)Nc2cccc(C(F)(F)F)c2)cc1OC,T/C,"dose: 3.13 mg/kg/injection, schedule: Q01DX009 (ip), vehicle: saline with Tween-80",112 % of control
same,T/C,[1],108 % of control
same,T/C,[2],91 % of control
C(=C\c1cc2ccc(C3=NCCN3)cc2[nH]1)/c1cc2ccc(C3=NCCN3)cc2[nH]1,T/C,"dose: 100.0 mg/kg/injection, schedule: Q04DX003 (ip), vehicle: saline",162 % of control
same,T/C,"dose: 200.0 mg/kg/injection, schedule: Q04DX003 (ip), vehicle: saline",162 % of control
same,T/C,"dose: 400.0 mg/kg/injection, schedule: Q04DX003 (ip), vehicle: saline",271 % of control
Cc1ccc(S(=O)(=O)O/N=C(/CC/C(=N\OS(=O)(=O)c2ccc(C)cc2)c2ccccc2)c2ccccc2)cc1,T/C,[6],95 % of control
same,T/C,[7],115 % of control
same,T/C,[8],96 % of control
CCN(CC)CCNc1ccc(CO)c2oc3ccc(OS(=O)(=O)c4ccc(C)cc4)cc3c(=O)c12,T/C,[3],99 % of control
same,T/C,[4],106 % of control
same,T/C,[5],122 % of control
COc1cccc(N=Nc2c(-c3ccccc3)nn(C(N)=S)c2-c2ccccc2)c1,T/C,[6],98 % of control
same,T/C,[7],95 % of control
same,T/C,[8],88 % of control
CC1CC2=C(C(=O)c3ccccc3C2=O)C(C)O1 (stereo not drawn),T/C,"dose: 60.0 mg/kg/injection, schedule: Q01DX005 (ip), vehicle: saline",106 % of control
same,T/C,"dose: 120.0 mg/kg/injection, schedule: Q01DX005 (ip), vehicle: saline",92 % of control
same,T/C,"dose: 240.0 mg/kg/injection, schedule: Q01DX005 (ip), vehicle: saline",96 % of control
CCOC(=O)C(=CNc1cc(OC)cc2cccnc12)C(=O)OCC,T/C,"dose: 50.0 mg/kg/injection, schedule: Q01DX005 (ip), vehicle: Klucel (hydroxypropylcellulose) (HPC)",96 % of control
same,T/C,"dose: 100.0 mg/kg/injection, schedule: Q01DX005 (ip), vehicle: Klucel (hydroxypropylcellulose) (HPC)",88 % of control
same,T/C,"dose: 200.0 mg/kg/injection, schedule: Q01DX005 (ip), vehicle: Klucel (hydroxypropylcellulose) (HPC)",88 % of control
